Legend:
[1] = test system: T-24; assay: Growth inhibition of human T24 cells at 0.5 uM after 3 days by MTT assay; format: functional; conditions: T-24, 72 h, read-out: GI
[2] = test system: T-24; assay: Growth inhibition of human T24 cells at 5 uM after 3 days by MTT assay; format: functional; conditions: T-24, 72 h, read-out: GI
[3] = test system: T-24; assay: Antitumor activity against human T24 cells after 3 days by MTT assay; format: functional, cell-based; conditions: T-24, 72 h
[4] = test system: LNCaP; assay: Antitumor activity against human LNCAP cells after 3 days by MTT assay; format: functional, cell-based; conditions: 72 h
[5] = test system: TCC-SUP; assay: Antitumor activity against human TCC-SUP cells after 3 days by MTT assay; format: functional, cell-based; conditions: 72 h
[6] = test system: PC-3; assay: Antitumor activity against human PC-3 cells after 3 days by MTT assay; format: functional, cell-based; conditions: PC-3, 72 h
[7] = Antitumor activity against human 253J cells after 3 days by MTT assay; format: functional, cell-based; conditions: 72 h
[8] = test system: DU-145; assay: Antitumor activity against human DU145 cells after 3 days by MTT assay; format: functional, cell-based; conditions: DU-145, 72 h

Row | Compound | inhibition of growth at 0.5 µM [1] | inhibition of growth at 5 µM [2] | IC50 [3] | IC50 [4] | IC50 [5] | IC50 [6] | IC50 [7] | IC50 [8]
1 | CC(C)[C@H]1NC(=O)C[C@@H]2NC(=O)[C@H](Cc3ccccc3)NC(=O)[C@H](Cc3ccccc3)NC(=O)[C@H](CSSCCNC2=O)NC1=O | 70% | > 95% | 260 nM | 270 nM | 380 nM | 600 nM | 180 nM | 180 nM
2 | CC(C)[C@H]1NC(=O)C[C@@H]2NC(=O)[C@H](Cc3cccc4ccccc34)NC(=O)[C@H](Cc3cccc4ccccc34)NC(=O)[C@H](CSSCCNC2=O)NC1=O | 70% | > 95% | 60 nM | – | – | – | – | –

From ChEMBL document CHEMBL1142513, “Efficient solid-phase synthesis of FK228 analogues as potent antitumoral agents” (J Med Chem, 2008)
